The test system of data set [1] is human PBMC. Put plainly: hPBMC cytokine release assay (Luminex, IFN-β). Format: cell-based. The conditions noted are these: read-out: Agonist_hPBMC_IFN-β_EC50. The procedure: This is the cytokines concentration detection with Luminex assay for human PBMC supernatant. Human peripheral blood mononuclear cells (PBMC) are treated by compounds with appropriate time. Multiple cytokines are released in the supernatant in response to the compound stimulation. Luminex assay can measure the cytokines concentration in supernatant and the compounds activity on human PBMC can be evaluated.
Frozen PBMC was thawed and cultured in PRMI1640 (GIBCO 11875-093) whole medium with […] Heat inactivated-FBS (HI—FBS), 1% NEAA, […] in CO2 incubator overnight. Cells were centrifuged at 400×g for 5 minutes at 4° C. and the pellet was re-suspended with complete RPMI1640 medium to concentration of 1×10^6 cells/ml in cell culture flask T75 (Thermo Fisher Scientific). Compounds were serially diluted with DMSO and distributed to 96-well flat bottom cell plate (Corning 3599) with Echo555. 90 μL/well PBMC cells were seeded into the plates with Multidrop (Thermo Fisher Scientific). After 24 hours of incubation in CO2 incubator, cells were centrifuged at 400×g for 5 minutes at room temperature, 80 μL supernatant each well was collected for cytokines release test with luminex assay of Human custom ProcartaPlex 5-plex kit (Thermo Fisher Scientific PPX-05). 10 μL supernatant or standards were added to a mixture of color-coded beads, 5 μL Biotinylated detection antibodies specific to the analytes of interest were added and formed an antibody-antigen sandwich. 10 μL Phycoerythrin (PE)-conjugated streptavidin is added to the plate and then read signal of each well on the Luminex 200™. The raw data was analyzed by Millipore Analyst Software and cytokine concentrations were generated accordingly. The EC50 of corresponding cytokine such as interferon-β (IFN-β) was calculated by the 4-parameter sigmoidal concentration response model fitting.

The nature of data set [2]: Single dose pharmacokinetics (SDPK) in female C57BL/6J mice. The note with it: mouse, 1 mg/kg, iv, plasma. Format: in vivo. The procedure: This is the single dose pharmacokinetics (PK) study in female C57/BL6 mice. The purpose of this study was to determine the pharmacokinetics of selected compounds following a single intravenous bolus injection in female C57BL/6J mice. Briefly, 3 female C57BL/6J mice (available from Shanghai Lingchang Biotechnology Co., Ltd) were treated with a single dose of compound intravenously at 1 mg/kg (IV). Blood samples were collected at 5 min, 15 min, 30 min, 1 h, 2 h, 4 h, 7 h and 24 h post-dose. Blood samples were placed on wet ice until centrifugation to obtain plasma samples. The compound concentration in plasma samples was determined using LC-MS/MS method. The pharmacokinetic parameters were calculated by non-compartmental analysis.

Data set [3] concerns interferon regulatory factor (IRF) pathway in THP1-Dual™ cells. The data set can be described thus: THP1-Dual reporter gene assay (Agonist_THP1_EC50). The data set is classed as cell-based. The conditions noted are these: Homo sapiens, 20-24 hrs compound treatment, Lucia luciferase (IRF) readout. The method in brief:
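Human THP-1 monocytes with Lucia luciferase under ISG54 minimal promoter plus five ISREs; ~33,000 cells/well with serially diluted compound, final 1% DMSO, 20-24 h at 37 °C. Supernatant Lucia luciferase read by QUANTI-Luc Gold luminescence; viability by CCK-8, A450 after 2 h.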
Background: A reporter such as luciferase makes a cellular process visible.

[4] abbreviates: 24 hours incubation, IFN-β in supernatant.
The mark [5] stands for this setting: female, C57BL/6J, prior art compounds (Table 4).

Each structure is given as a SMILES string. Like-named read-outs stand apart in the source and are kept apart here.

Consider `Cc1cc2c(C(N)=O)nn(-c3nc(-c4c(O)c(C)nn4CCc4ccccc4)n[nH]3)c2cn1` [Example 40, 1-[3-[4-hydroxy-5-methyl-2-(2-phenylethyl)pyrazol-3-yl]-1H-1,2,4-triazol-5-yl]-5-methyl-pyrazolo[3,4-c]pyridine-3-carboxamide], for which the EC50 in data set [1] (setting [4]) was 0.046 µM. For the same compound, in data set [2] (female C57BL/6J mice), the AUC(0-t) was 0.151 µg·h/mL, the C0 was found to be 1.6 µg/mL and the clearance is 6.84 L/h/kg. The EC50 in data set [3] was 0.011 µM.
For `CCCn1nc(C)c(O)c1-c1n[nH]c(-c2c(F)c(C(N)=O)n3cc(C)ncc23)n1` [Example 79, 7-fluoro-8-[3-(4-hydroxy-5-methyl-2-propyl-pyrazol-3-yl)-1H-1,2,4-triazol-5-yl]-3-methyl-pyrrolo[1,2-a]pyrazine-6-carboxamide], the EC50 in data set [1] (setting [4]) came to 0.022 µM. Moreover, in data set [2] (female C57BL/6J mice), the AUC(0-t) turned out to be 0.15 µg·h/mL, the C0 stood at 2.2 µg/mL and the clearance amounted to 6.66 L/h/kg. This compound also registered an EC50 in data set [3] of 0.005 µM.
In data set [2] (female C57BL/6J mice), `CCn1nc(C)c(O)c1-c1n[nH]c(-c2c(F)c(C(N)=O)n3cc(C)ncc23)n1` [Example 4, 8-[3-(2-ethyl-4-hydroxy-5-methyl-pyrazol-3-yl)-1H-1,2,4-triazol-5-yl]-7-fluoro-3-methyl-pyrrolo[1,2-a]pyrazine-6-carboxamide] came in with an area under the curve AUC(0-t) of 0.122 µg·h/mL, a C0 of 1.72 µg/mL and a clearance of 8.22 L/h/kg. The compound further had an EC50 in data set [3] of 0.162 µM.
As for `CCn1nc(C)c(O)c1-c1nnc(-c2nc(C(N)=O)cc3c2cnn3C)[nH]1` [AC01, reference compound], in data set [1] (prior art compounds (Table 4), IFN-β), the EC50 amounted to 0.028 µM. Also, in data set [2] (setting [5]), the AUC(0-t) worked out at 0.102 µg·h/mL, the C0 came out at 0.997 µg/mL and the clearance amounted to 10.2 L/h/kg.
On to `CCCn1nc(C)c(O)c1-c1n[nH]c(-n2nc(C(N)=O)c3cc(C)ncc32)n1` [Example 31, 1-[3-(4-hydroxy-5-methyl-2-propyl-pyrazol-3-yl)-1H-1,2,4-triazol-5-yl]-5-methyl-pyrazolo[3,4-c]pyridine-3-carboxamide], for which the EC50 in data set [1] (setting [4]) came to 0.032 µM. Besides, in data set [2] (female C57BL/6J mice), the AUC(0-t) turned out to be 0.597 µg·h/mL, the C0 is 5.5 µg/mL and the clearance was 1.8 L/h/kg. In data set [3], this compound gave an EC50 of 0.019 µM.
`CCCn1nc(C)c(O)c1-c1nc(-c2c(F)c(C(N)=O)n3cc(C)ncc23)co1` [Example 93, 7-fluoro-8-[2-(4-hydroxy-5-methyl-2-propyl-pyrazol-3-yl)oxazol-4-yl]-3-methyl-pyrrolo[1,2-a]pyrazine-6-carboxamide]: the figures for the EC50 in data set [1] (setting [4]) and in data set [3] were 0.009 µM and 0.006 µM, respectively.
The like results for `CCCCn1nc(C)c(O)c1-c1n[nH]c(-c2c(F)c(C(N)=O)n3cc(C)ncc23)n1` [Example 76, 8-[3-(2-butyl-4-hydroxy-5-methyl-pyrazol-3-yl)-1H-1,2,4-triazol-5-yl]-7-fluoro-3-methyl-pyrrolo[1,2-a]pyrazine-6-carboxamide] were, in that order, 0.014 µM and 0.015 µM.
For `CC#CCCn1nc(C)c(O)c1-c1n[nH]c(-c2nc(C(N)=O)cc3c2cnn3C)n1` [Example 45, 4-[3-(4-hydroxy-5-methyl-2-pent-3-ynyl-pyrazol-3-yl)-1H-1,2,4-triazol-5-yl]-1-methyl-pyrazolo[4,3-c]pyridine-6-carboxamide] the same measures were 0.009 µM and 0.009 µM.
`COCc1ccc(CCn2nc(C)c(O)c2-c2n[nH]c(-n3nc(C(N)=O)c4cc(C)ncc43)n2)cc1` [Example 64, 1-[3-[4-hydroxy-2-[2-[4-(methoxymethyl)phenyl]ethyl]-5-methyl-pyrazol-3-yl]-11H-1,2,4-triazol-5-yl]-5-methyl-pyrazolo[3,4-c]pyridine-3-carboxamide]: the EC50 in data set [1] (setting [4]) is 0.035 µM; in data set [3], 0.013 µM.
The like results for `CCCCn1nc(C)c(O)c1-c1nc(-n2nc(C(N)=O)c3cc(C)ncc32)co1` [Example 59, 1-(2-(1-butyl-4-hydroxy-3-methyl-1H-pyrazol-5-yl)oxazol-4-yl)-5-methyl-1H-pyrazolo[3,4-c]pyridine-3-carboxamide] were, in that order, 0.007 µM and 0.01 µM.

A word on the AUC(0-t): it is the area under the concentration-time curve up to a stated or last time point. Higher therefore signals more exposure. The clearance is the volume of plasma or blood freed of the substance per unit of time. Lower therefore signals inefficient removal.
